The assay addresses T1, CDK5 (Inactive) (Homo sapiens, UniProt Q00535).
T1 construct: purchased Thermo Fisher Scientific (Life Technologies) SelectScreen
The assay can be described thus: SelectScreen LanthaScreen. The following applies: read-out: % displacement. The class given is binding. An outline of the steps:
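SelectScreen broad panel; activity (Z'LYTE, Adapta) plus binding formats. ATP: Km app for CSF1R Z'LYTE; 10 for CAMK1 Adapta. Readout = % per kinase.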
A general note: In TR-FRET formats the signal depends on donor and acceptor labels being close together.

The structures appear in SMILES notation.

T1 sequence (Q00535 whole entry): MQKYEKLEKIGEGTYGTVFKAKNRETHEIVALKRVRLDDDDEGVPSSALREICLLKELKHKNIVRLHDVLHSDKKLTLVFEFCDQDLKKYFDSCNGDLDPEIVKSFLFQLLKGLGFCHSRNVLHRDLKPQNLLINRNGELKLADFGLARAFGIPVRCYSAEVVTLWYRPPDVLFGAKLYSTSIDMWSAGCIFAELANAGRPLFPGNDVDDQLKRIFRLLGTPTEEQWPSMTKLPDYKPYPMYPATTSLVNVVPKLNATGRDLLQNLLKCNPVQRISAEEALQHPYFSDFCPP

For the compound `CN(C(=O)CN1CCOCC1)c1ccc2sc3c(-c4cccc5c(=O)cc(N6CC7CCC(C6)O7)oc45)cccc3c2c1` [NU5455], the inhibition at 1 µM is -2.1%.

Source of the values: PMC6934184, “Selective DNA-PKcs inhibition extends the therapeutic index of localized radiotherapy and chemotherapy” (The Journal of Clinical Investigation, 2019).
